According to patent US20230077723A1, “N-SUBSTITUTED-3,4-(FUSED 5-RING)-5-PHENYL-PYRROLIDINE-2-ONE COMPOUNDS AS INHIBITORS OF ISOQC AND/OR QC ENZYME” (Scenic Immunology B.V., priority 2019, published 2023):

Assays:
human isoQC (S53-L382) [1] = molecular target: T1, human isoQC (S53-L382) (Homo sapiens, UniProt Q9NXS2); test: Assay 2 - isoQC potency, mass spectrometry-based enzymatic potency assay; type: biochemical; settings: mass spectrometry read-out, 7.5 nM isoQC, 10 μM H-Gln-AMC; read-out: isoQc Pot. Assay No. 2
T1 construct: enzymatically active region of human isoQC (S53-L382; see, e.g., Huang et al., 2011); GST-Enterokinase site (N, cleaved yes); made in house; host or cells: E. coli
T1 sequence (Q9NXS2 53-382): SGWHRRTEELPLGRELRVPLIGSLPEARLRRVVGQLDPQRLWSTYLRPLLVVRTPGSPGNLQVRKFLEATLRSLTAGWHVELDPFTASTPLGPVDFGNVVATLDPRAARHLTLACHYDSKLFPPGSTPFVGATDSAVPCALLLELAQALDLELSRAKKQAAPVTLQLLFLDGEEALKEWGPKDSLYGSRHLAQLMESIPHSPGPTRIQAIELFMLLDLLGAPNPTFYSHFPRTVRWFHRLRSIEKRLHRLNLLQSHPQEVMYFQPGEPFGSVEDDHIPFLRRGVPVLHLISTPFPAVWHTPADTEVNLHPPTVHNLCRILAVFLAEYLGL
Protocol: (§1) The Golgi luminal, enzymatically active region of human isoQC (S53-L382; see, e.g., Huang et al., 2011) was obtained by expression in E. coli of an N-terminally GST-Enterokinase and C-terminally 6×His tagged construct in the pET41(+) vector and subsequent purification using talon beads and GST beads, enterokinase digestion and further purification with a final formulation in 25 mM Tris pH 8.0/150 mM NaCl/1 mM TCEP. Absence of pyroglutamylating activity in an enzymatic dead variant that was cloned, expressed, and purified in parallel ruled out that the purification strategy isolates any endogenously present pyroglutamylating activity.
(§2) EC50's of test compounds were determined by incubating 11-point two-fold dilutions of test compound in 20 μL volumes in the presence of 7.5 nM isoQC and 10 μM H-Gln-AMC using 50 mM Tris-HCl pH 8.0 as assay buffer for 2 hours at room temperature before stopping the reaction by the addition of 2 volumes of methanol. Both the substrate and the product of this reaction were read out using an Agilent RapidFire microfluidic solid phase sample extraction system coupled to an AB Sciex API 4000 triple quadrupole mass spectrometer, in negative ion mode, at m/z of 301.9 and 284.9 respectively. The actual readout was defined as P/(S+P), where P is the product signal area and S the substrate signal area. EC50's were calculated by four parameter sigmoidal model fitting.

[2] = test system: pyroglutamylated CD47 (pE-CD47) in KBM7 cells; test: Assay 6 - cell-based potency assay (pE-CD47 CC2C6 staining vs total CD47); design: species or system human; settings: Homo sapiens, KBM-7, 72 h, CC2C6 signal, read-out: Cell Pot. Assay No. 6
Protocol: Cells were spun for 4 minutes at 1500 rpm and washed once with PBS/0.5% BSA. Cells were spun down again and the supernatant was removed and incubated in 100 uL antibody staining solution (PBS/0.5% BSA/0.1 μg/mL DAPI (4′,6-diamidino-2-phenylindole, ThermoFisher Scientific) and a mixture of 1:500 FITC-conjugated anti-human CD47 clone 2D3, which recognizes total CD47 irrespective of its pyroglutamylation state, and 1:500 Alexa647-conjugated anti-human CD47 clone CC2C6, which specifically detects pyroglutamylated CD47) for 2 hours at 4° C. Next, the cells were spun down and washed twice with 2×150 μL PBS/0.5% BSA to remove unbound antibody. Cells were again spun down and taken up in 300 μL FACS buffer before analysis on a Celesta FACS machine (BD Biosciences).
KBM7 cells (Kotecki et al., 1999) were infected with lentivirus produced by transfecting pSCNC-LentiCRISPR-QPCTL or pSCNC-LentiCRISPR-CD47 into HEK-293T cells according to standard protocols. After 24 hours incubation, cells were selected with puromycin (Invivogen, 1 μg/mL) for 48 hours. Cells were stained for total CD47 and pE-CD47 and QPCTL k.o. cells were sorted out as negative for pE-CD47, and CD47 k.o. cells as negative for total CD47, using a FACSAria III and FACS Diva software (BD Biosciences).
In order to test compounds for their effect on pyroglutamylation in live cells, 25000 KBM7 cells per well were seeded in a 96-well U-bottom plate in 150 μl IMDM/10% FCS/1% Pen/Strep medium and a 10-point 2-fold dilution range of test compounds. After 72 hours incubation at 37° C., 5% CO2, cells were stained for total CD47 and pE-CD47 and analyzed on a BD Celesta using FACS Diva software (BD Biosciences). Cells gated for DAPI negativity were recorded and the median fluorescence intensity (MFI) of each sample was transformed to linearly scale between the MFI's of wildtype and CD47 knockout cells (in case of the 2D3 antibody) and the wildtype and QPCTL knockout cells (in case of the CC2C6 antibody). IC50's were calculated by 3 parameter logistic regression of the CC2C6 signal vs. compound concentration, where the top of the sigmoidal curve was fixed at 1, using R and the drc package (http://www.r-project.org, https://cran.r-project.org/web/packages/drc/index.html).

recombinant human QC = molecular target: T2, recombinant human QC (Homo sapiens, UniProt Q16769); test: Assay 4 - QC potency, mass spectrometry-based enzymatic potency assay; type: biochemical; settings: mass spectrometry read-out; read-out: QC Pot. Assay No. 4
T2 construct: His6 (N); purchased R&D Systems
T2 sequence (Q16769 29-361): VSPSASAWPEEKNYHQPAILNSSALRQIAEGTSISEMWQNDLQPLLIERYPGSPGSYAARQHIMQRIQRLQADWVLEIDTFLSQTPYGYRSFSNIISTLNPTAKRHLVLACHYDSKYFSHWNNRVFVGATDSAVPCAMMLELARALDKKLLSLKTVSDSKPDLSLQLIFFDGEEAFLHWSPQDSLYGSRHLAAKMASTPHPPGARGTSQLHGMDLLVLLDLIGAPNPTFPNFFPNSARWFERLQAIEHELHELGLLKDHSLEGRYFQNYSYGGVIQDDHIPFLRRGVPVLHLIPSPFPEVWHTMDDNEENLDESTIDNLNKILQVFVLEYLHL
Protocol: as §2
EC50's of test compounds were determined in the same way as described in Assay 2 above, except that N-terminally His6-tagged recombinant human QC (R&D Systems) was used instead of isoQC.

human isoQC (S53-L382) [3] = molecular target: T1, human isoQC (S53-L382); test: Assay 1 - isoQC inhibition, fluorescent enzymatic assay (single concentration); type: biochemical; settings: isoQC inhibition at 250 nM test compound; read-out: isoQc Inh. Assay No. 1
Protocol: Initially, isoQC inhibitory activity was measured at a single concentration in a fluorescent-based assay (Assay 1 below). In order to establish the inhibitory activity more quantitatively, IC50 values were obtained using a mass spectrometry-based assay where pyroglutamylation by either isoQC or QC was measured (Assays 2 and 4, respectively, below). Alternatively, IC50 values for isoQC or QC were obtained using a fluorescence-based assay (Assays 3 and 5 respectively, below).
as §1
Pyroglutamylation was measured by conversion of glutamine-4-amino-7-methylcoumarine (H-Gln-AMC, Bachem) to pyroglutamyl-AMC, which is subsequently a specific substrate for pyroglutamylaminopeptidase (pGAPase, Qiagen), releasing free AMC which can be fluorescently detected. For a typical inhibition assay, 15 μL 20 μM h-Gln-AMC (diluted from a 40 mM stock dissolved in 25 mM HEPES using 50 mM Tris-HCl pH 8.0) was pipetted into a 96-well plate on ice. Next, 7.5 μL 1 μM test compound (diluted from a 10 mM stock dissolved in DMSO using 50 mM Tris-HCl) was added. Finally, 7.5 μL, 3 ng/μL recombinant isoQC enzyme was added and the reaction mixture was incubated for 1 hour at 37° C. A 5 minute incubation at 98° C. was then performed to denature the isoQC enzyme and stop the reaction.
To detect the amount of pyroglutamyl-AMC formed, a 96-well plate was prepared with 25 μL 0.125 U/mL pGAPase enzyme diluted in 50 mM Tris-HCl pH 8.0 containing 10 mM dithiothreitol (DTT). 25 μL of the pyroglutamylation reaction mixture was transferred into the plate containing the pGAPase solutions while on ice. Once done, the plate was moved over to a Spectramax ID3 fluorescent plate-reader to monitor and record the maximum fluorescence at 380 nm excitation/450 nm emission over a period of 20 minutes while keeping the temperature at 37° C.
DMSO concentrations during the assay never exceeded 1% and activities were compared to controls containing only the same amount of DMSO and no test compound. […] Test compounds were reported as active when <40% of background corrected signal was measured as compared to DMSO controls.

SMILES	IC50 (human isoQC (S53-L382) [1])	IC50 [2]	IC50 (recombinant human QC)	inhibition at 0.25 µM (human isoQC (S53-L382) [3])
CCCOc1ccc(C2c3c(nn(C)c3C)C(=O)N2c2ccn3ccnc3c2)cc1 (stereo not drawn) [FRPPO-009]	0.025 to 0.1 µM	1 to 5 µM	0.1 to 5 µM	> 40%
Cc1c2c(nn1C)C(=O)N(c1ccc3[nH]cnc3c1)C2c1ccc(N2CCC(C)(C)C2=O)cc1 (stereo not drawn) [FRPPO-010]	0.025 to 0.1 µM	1 to 5 µM	0.025 to 0.1 µM	> 40%
Cc1c2c(nn1C)C(=O)N(c1ccc3[nH]cnc3c1)C2c1ccc(N2CCCCCC2=O)cc1 (stereo not drawn) [FRPPO-011]	0.025 to 0.1 µM	≥ 50 µM	0.1 to 5 µM	> 40%
Cc1c2c(nn1C)C(=O)N(c1ccc3[nH]cnc3c1)C2c1cc(F)cc(F)c1F (stereo not drawn) [FRPPO-013]	0.025 to 0.1 µM	1 to 5 µM	0.025 to 0.1 µM	> 40%
Cc1c2c(nn1C)C(=O)N(c1ccc3[nH]cnc3c1)C2c1ccc(-c2ccccn2)cc1 (stereo not drawn) [FRPPO-014]	< 0.025 µM	1 to 5 µM	0.025 to 0.1 µM	> 40%
Cc1c2c(nn1C)C(=O)N(c1ccc3[nH]cnc3c1)C2c1ccc(N2CCCC2=O)cc1 (stereo not drawn) [FRPPO-016]	< 0.025 µM	5 to 50 µM	0.025 to 0.1 µM	> 40%
CCCOc1ccc(C2c3c(C)nn(C(C)C)c3C(=O)N2c2ccc3[nH]cnc3c2)cc1 (stereo not drawn) [FRPPO-021]	–	5 to 50 µM	–	≤ 40%
CCCOc1ccc(C2c3c(C)nn(C4CCC4)c3C(=O)N2c2ccc3[nH]cnc3c2)cc1 (stereo not drawn) [FRPPO-022]	–	1 to 5 µM	–	≤ 40%
CCCOc1ccc(C2c3c(C)nn(CC(F)(F)F)c3C(=O)N2c2ccc3[nH]cnc3c2)cc1 (stereo not drawn) [FRPPO-023]	–	5 to 50 µM	–	≤ 40%
CCCOc1ccc(C2c3c(nn(CC(F)(F)F)c3C)C(=O)N2c2ccc3[nH]cnc3c2)cc1 (stereo not drawn) [FRPPO-037]	–	1 to 5 µM	–	> 40%
CCCOc1ccc(C2c3c(nn(CC(C)(C)F)c3C)C(=O)N2c2ccc3[nH]cnc3c2)cc1 (stereo not drawn) [FRPPO-038]	–	1 to 5 µM	–	> 40%
Cc1c2c(nn1C)C(=O)N(c1ccc3[nH]cnc3c1)C2c1cccc(C2CCN(C)CC2)c1F (stereo not drawn) [FRPPO-155]	–	5 to 50 µM	–	–
Cc1nn(C)c2c1C(c1ccc(OCCC(F)F)c(F)c1F)N(c1ccc3[nH]cnc3c1)C2=O (stereo not drawn) [FRPPO-167]	–	1 to 5 µM	–	–
Cn1nc(C2CC2)c2c1C(=O)N(c1ccc3[nH]cnc3c1)C2c1ccc(N2CCC(F)(F)C2)cc1 (stereo not drawn) [FRPPO-168]	–	1 to 5 µM	–	–
Cc1nn(C)c2c1C(c1ccc(N3CCC(F)(F)C3)c(F)c1F)N(c1ccc3[nH]cnc3c1)C2=O (stereo not drawn) [FRPPO-169]	–	1 to 5 µM	–	–
Cc1nn(C)c2c1C(c1ccc(N3CCC(F)(F)C3)cc1F)N(c1ccc3[nH]cnc3c1)C2=O (stereo not drawn) [FRPPO-170]	–	1 to 5 µM	–	–
Cc1nn(C)c2c1C(c1ccc(-n3cc(C(F)(F)F)cn3)cc1)N(c1ccc3[nH]cnc3c1)C2=O (stereo not drawn) [FRPPO-174]	–	1 to 5 µM	–	–
Cc1[nH]nc2c1C(c1ccc(-n3cc(C(F)(F)F)cn3)cc1F)N(c1ccn3ccnc3c1)C2=O (stereo not drawn) [FRPPO-198]	–	< 1 µM	–	–

Further lines, results first:

IC50 (human isoQC (S53-L382) [1])	IC50 [2]	IC50 (recombinant human QC)	inhibition at 0.25 µM (human isoQC (S53-L382) [3])	SMILES
0.025 to 0.1 µM	< 1 µM	0.1 to 5 µM	> 40%	CCCOc1ccc(C2c3c(nn(C)c3C)C(=O)N2c2ccc3[nH]cnc3c2)c(C)c1 (stereo not drawn) [FRPPO-003]
< 0.025 µM	< 1 µM	0.025 to 0.1 µM	> 40%	CCCOc1ccc(C2c3c(nn(C)c3C)C(=O)N2c2ccc3[nH]cnc3c2)c(Cl)c1 (stereo not drawn) [FRPPO-004]
0.025 to 0.1 µM	< 1 µM	0.1 to 5 µM	> 40%	CCCOc1ccc(C2c3c(nn(C)c3C3CC3)C(=O)N2c2ccc3[nH]cnc3c2)cc1 (stereo not drawn) [FRPPO-006]
0.025 to 0.1 µM	< 1 µM	0.025 to 0.1 µM	> 40%	CCCOc1ccc(C2c3c(nn(C)c3CC)C(=O)N2c2ccc3[nH]cnc3c2)cc1 (stereo not drawn) [FRPPO-007]
< 0.025 µM	< 1 µM	0.025 to 0.1 µM	> 40%	Cc1c2c(nn1C)C(=O)N(c1ccc3[nH]cnc3c1)C2c1cccc(F)c1F (stereo not drawn) [FRPPO-012]
–	< 1 µM	–	> 40%	CCCOc1ccc(C2c3c(nn(C4CC4)c3C)C(=O)N2c2ccc3[nH]cnc3c2)cc1 (stereo not drawn) [FRPPO-036]
–	< 1 µM	–	–	Cc1[nH]nc2c1C(c1ccc(-c3csc(C(F)(F)F)n3)cc1F)N(c1ccc3[nH]cnc3c1)C2=O (stereo not drawn) [FRPPO-147]
–	< 1 µM	–	–	Cc1c2c(nn1C)C(=O)N(c1ccc3[nH]cnc3c1)C2c1ccc(-n2cc(C(F)(F)F)cn2)cc1F (stereo not drawn) [FRPPO-150A]
–	< 1 µM	–	–	CC(C)c1c2c(nn1C)C(=O)N(c1ccc3[nH]cnc3c1)C2c1ccc(N2CCC(F)(F)C2)cc1F (stereo not drawn) [FRPPO-152A]
–	< 1 µM	–	–	CC(C)c1[nH]nc2c1C(c1ccc(N3CCC(F)(F)C3)cc1F)N(c1ccc3[nH]cnc3c1)C2=O (stereo not drawn) [FRPPO-153]
–	< 1 µM	–	–	Cc1c2c(nn1C)C(=O)N(c1ccc3[nH]cnc3c1)C2c1ccc(N2CCC(F)(F)C2)c(F)c1F (stereo not drawn) [FRPPO-154]
–	< 1 µM	–	–	CC(O)c1c2c(nn1C)C(=O)N(c1ccc3[nH]cnc3c1)C2c1ccc(N2CCC(F)(F)C2)cc1F (stereo not drawn) [FRPPO-156]
–	< 1 µM	–	–	Cn1nc2c(c1CO)C(c1ccc(N3CCC(F)(F)C3)cc1F)N(c1ccc3[nH]cnc3c1)C2=O (stereo not drawn) [FRPPO-157]
–	< 1 µM	–	–	Cc1nn(C)c2c1C(c1ccc(-c3cnn(C(F)(F)F)c3)cc1)N(c1ccc3[nH]cnc3c1)C2=O (stereo not drawn) [FRPPO-175]
–	< 1 µM	–	–	Cc1c2c(nn1C)C(=O)N(c1ccn3ccnc3c1)C2c1ccc(N2CCOC(C)C2)cc1F (stereo not drawn) [FRPPO-197]
